# Source: PubChem BioAssay AID1845219 (Molecular Pharmacology Branch, DTP, NCI, 2023)
# Values joined by “and” are separate entries in the source; they are usually repeats but may differ in a detail not shown here. Identical values can stand only once.
# Test system: SYO-1 tumor spheroids, viability % test/control
# Experiment: Anticancer human tumor SYO-1 cell line growth inhibition;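 also: spheroids exposed to agents for 7 days before viability read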;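 as to viability, T/C: 100% = DMSO vehicle control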
# Conditions: spheroids with HUVEC and MSC; for viability, T/C: stronger effect = lower value
# In short: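 Complex tumor spheroids combined malignant cells with endothelial cells and mesenchymal stem cells. DNA-damaging drugs and DNA repair inhibitors were tested alone and in combination, at half-log dilutions down from clinical Cmax (top 10 microM if Cmax unknown), 0.25% DMSO final.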
# [1] = curve of first compound, second compound 0.003 µM
smiles,measurement,setting,value
CC1COCCN1c1cc(-c2ccnn2C)c2ccnc(-c3ccn[nH]3)c2n1 (configuration not stated) + CC[C@@]1(O)C(=O)OCc2c1cc1n(c2=O)Cc2cc3c(CN(C)C)c(O)ccc3nc2-1,IC50,[1],< 31.6 nM
same,IC50,"curve of first compound, second compound 0.00949 µM",< 31.6 nM
same,IC50,"curve of first compound, second compound 0.03 µM",< 31.6 nM
same,IC50,"curve of first compound, second compound 0.0949 µM",< 31.6 nM
same,IC50,"curve of first compound, second compound 0.3 µM",< 31.6 nM
same,"viability, T/C","second compound 0.003 µM, first compound 0.0316 µM",2.41%
same,"viability, T/C","second compound 0.003 µM, first compound 0.1 µM",1.6%
same,"viability, T/C","second compound 0.003 µM, first compound 0.316 µM",1.52%
same,"viability, T/C","second compound 0.003 µM, first compound 1 µM",1.01%
same,"viability, T/C","second compound 0.003 µM, first compound 3.16 µM",0.46%
same,"viability, T/C","second compound 0.003 µM, first compound 10 µM",0.49%
same,"viability, T/C","second compound 0.00949 µM, first compound 0.0316 µM",1.89%
same,"viability, T/C","second compound 0.00949 µM, first compound 0.1 µM",1.76%
same,"viability, T/C","second compound 0.00949 µM, first compound 0.316 µM",1.42%
same,"viability, T/C","second compound 0.00949 µM, first compound 1 µM",0.94%
same,"viability, T/C","second compound 0.00949 µM, first compound 3.16 µM",0.47%
same,"viability, T/C","second compound 0.00949 µM, first compound 10 µM",0.42%
same,"viability, T/C","second compound 0.03 µM, first compound 0.0316 µM",1.75%
same,"viability, T/C","second compound 0.03 µM, first compound 0.1 µM",1.64%
same,"viability, T/C","second compound 0.03 µM, first compound 0.316 µM",1.18%
same,"viability, T/C","second compound 0.03 µM, first compound 1 µM",0.74%
same,"viability, T/C","second compound 0.03 µM, first compound 3.16 µM",0.43%
same,"viability, T/C","second compound 0.03 µM, first compound 10 µM",0.42%
same,"viability, T/C","second compound 0.0949 µM, first compound 0.0316 µM",1.31%
same,"viability, T/C","second compound 0.0949 µM, first compound 0.1 µM",1.48%
same,"viability, T/C","second compound 0.0949 µM, first compound 0.316 µM",0.96%
same,"viability, T/C","second compound 0.0949 µM, first compound 1 µM",0.68%
same,"viability, T/C","second compound 0.0949 µM, first compound 3.16 µM",0.44%
same,"viability, T/C","second compound 0.0949 µM, first compound 10 µM",0.41%
same,"viability, T/C","second compound 0.3 µM, first compound 0.0316 µM",1.79%
same,"viability, T/C","second compound 0.3 µM, first compound 0.1 µM",1.55%
same,"viability, T/C","second compound 0.3 µM, first compound 0.316 µM",1.05%
same,"viability, T/C","second compound 0.3 µM, first compound 1 µM",0.66%
same,"viability, T/C","second compound 0.3 µM, first compound 3.16 µM",0.47%
same,"viability, T/C","second compound 0.3 µM, first compound 10 µM",0.49%
Cc1cc(C)c(CNC(=O)c2cc(-c3ccc(CN4CCOCC4)cc3)cc3c2cnn3C2CCCC2)c(=O)[nH]1,"viability, T/C",compound 0.0316 µM,106% and 109% and 103%
same,"viability, T/C",compound 0.1 µM,106% and 109% and 100%
same,"viability, T/C",compound 0.316 µM,108% and 97.8% and 99.2%
same,"viability, T/C",compound 1 µM,107% and 104% and 103%
same,"viability, T/C",compound 3.16 µM,112% and 104% (2×)
same,"viability, T/C",compound 10 µM,106% and 67% and 88.7%
same,IC50,curve of compound,> 10000 nM
CNCc1ccc(-c2cc(-c3nc(-c4ccc(S(=O)(=O)C(C)C)cc4)cnc3N)on2)cc1 + COc1cc2c(cc1O)CCNC21CSC2c3c(OC(C)=O)c(C)c4c(c3C(COC1=O)N1C(O)C3Cc5cc(C)c(OC)c(O)c5C(C21)N3C)OCO4,IC50,"curve of first compound, second compound 30 pM",134 nM
same,IC50,"curve of first compound, second compound 94.9 pM",49.1 nM
same,IC50,"curve of first compound, second compound 0.0003 µM",< 9.49 nM
same,IC50,"curve of first compound, second compound 0.000949 µM",< 9.49 nM
same,IC50,[1],< 9.49 nM
same,"viability, T/C","second compound 30 pM, first compound 0.00949 µM",100%
same,"viability, T/C","second compound 30 pM, first compound 0.03 µM",94.2%
same,"viability, T/C","second compound 30 pM, first compound 0.0949 µM",70.5%
same,"viability, T/C","second compound 30 pM, first compound 0.3 µM",2.18%
same,"viability, T/C","second compound 30 pM, first compound 0.949 µM",0.23%
same,"viability, T/C","second compound 30 pM, first compound 3 µM",0.08%
same,"viability, T/C","second compound 94.9 pM, first compound 0.00949 µM",98.6%
same,"viability, T/C","second compound 94.9 pM, first compound 0.03 µM",84%
same,"viability, T/C","second compound 94.9 pM, first compound 0.0949 µM",4.65%
same,"viability, T/C","second compound 94.9 pM, first compound 0.3 µM",1.24%
same,"viability, T/C","second compound 94.9 pM, first compound 0.949 µM",0.12%
same,"viability, T/C","second compound 94.9 pM, first compound 3 µM",0.07%
same,"viability, T/C","second compound 0.0003 µM, first compound 0.00949 µM",11.1%
same,"viability, T/C","second compound 0.0003 µM, first compound 0.03 µM",3.94%
same,"viability, T/C","second compound 0.0003 µM, first compound 0.0949 µM",2.02%
same,"viability, T/C","second compound 0.0003 µM, first compound 0.3 µM",0.82%
same,"viability, T/C","second compound 0.0003 µM, first compound 0.949 µM",0.12%
same,"viability, T/C","second compound 0.0003 µM, first compound 3 µM",0.09%
same,"viability, T/C","second compound 0.000949 µM, first compound 0.00949 µM",1.37%
same,"viability, T/C","second compound 0.000949 µM, first compound 0.03 µM",1.54%
same,"viability, T/C","second compound 0.000949 µM, first compound 0.0949 µM",1.43%
same,"viability, T/C","second compound 0.000949 µM, first compound 0.3 µM",0.42%
same,"viability, T/C","second compound 0.000949 µM, first compound 0.949 µM",0.09%
same,"viability, T/C","second compound 0.000949 µM, first compound 3 µM",0.1%
same,"viability, T/C","second compound 0.003 µM, first compound 0.00949 µM",0.12%
same,"viability, T/C","second compound 0.003 µM, first compound 0.03 µM",0.12%
same,"viability, T/C","second compound 0.003 µM, first compound 0.0949 µM",0.1%
same,"viability, T/C","second compound 0.003 µM, first compound 0.3 µM",0.11%
same,"viability, T/C","second compound 0.003 µM, first compound 0.949 µM",0.19%
same,"viability, T/C","second compound 0.003 µM, first compound 3 µM",0.18%
